Reference: ChEMBL document CHEMBL2321732, “Synthesis and evaluation of novel 2,3,5-triaryl-4H,2,3,3a,5,6,6a-hexahydropyrrolo[3,4-d]isoxazole-4,6-diones for advanced glycation end product formation inhibitory activity” (Bioorg Med Chem Lett, 2013)

Assay: Antiglycation activity assessed as inhibition of glucose-mediated advanced glycation end product formation after 30 hrs by fluorescence spectrophotometry in presence of bovine serum albumin
Type: physicochemical

IC50 [µM]	Compound
75	Cc1ccc(N2C(=O)[C@@H]3[C@@H](ON(c4ccccc4)[C@H]3c3ccccc3O)C2=O)cc1
63.9	O=C(O)c1ccc(N2C(=O)[C@@H]3[C@@H](ON(c4ccccc4)[C@H]3c3ccccc3O)C2=O)cc1 (relative stereo)
127	O=C(O)c1ccc(N2C(=O)[C@@H]3[C@@H](ON(c4ccccc4)[C@H]3c3ccccc3Cl)C2=O)cc1 (relative stereo)
7.4	O=C1[C@H]2[C@@H](c3ccccc3Cl)N(c3ccccc3)O[C@H]2C(=O)N1c1ccccc1 (relative stereo)
30.9	O=C1[C@@H]2[C@@H](ON(c3ccccc3)[C@H]2c2ccccc2Cl)C(=O)N1c1ccccc1 (relative stereo)
7.18	Cc1ccc(N2C(=O)[C@H]3[C@@H](c4ccccc4Cl)N(c4ccccc4)O[C@H]3C2=O)cc1 (relative stereo)
23.9	Cc1ccc(N2C(=O)[C@@H]3[C@@H](ON(c4ccccc4)[C@H]3c3ccccc3Cl)C2=O)cc1 (relative stereo)
8.63	COc1ccc(N2C(=O)[C@H]3[C@@H](c4ccccc4Cl)N(c4ccccc4)O[C@H]3C2=O)cc1 (relative stereo)
24.2	COc1ccc(N2C(=O)[C@@H]3[C@@H](ON(c4ccccc4)[C@H]3c3ccccc3Cl)C2=O)cc1 (relative stereo)
33	O=C(O)c1ccc(N2C(=O)[C@H]3[C@@H](c4ccccc4Cl)N(c4ccccc4)O[C@H]3C2=O)cc1 (relative stereo)
25.9	O=C1[C@H]2[C@@H](c3ccccc3O)N(c3ccccc3)O[C@H]2C(=O)N1c1ccccc1 (relative stereo)
64.8	O=C1[C@@H]2[C@@H](ON(c3ccccc3)[C@H]2c2ccccc2O)C(=O)N1c1ccccc1 (relative stereo)
18.8	Cc1ccc(N2C(=O)[C@H]3[C@@H](c4ccccc4O)N(c4ccccc4)O[C@H]3C2=O)cc1 (relative stereo)
26.6	COc1ccc(N2C(=O)[C@H]3[C@@H](c4ccccc4O)N(c4ccccc4)O[C@H]3C2=O)cc1 (relative stereo)
90.1	COc1ccc(N2C(=O)[C@@H]3[C@@H](ON(c4ccccc4)[C@H]3c3ccccc3O)C2=O)cc1 (relative stereo)
24.4	O=C(O)c1ccc(N2C(=O)[C@H]3[C@@H](c4ccccc4O)N(c4ccccc4)O[C@H]3C2=O)cc1 (relative stereo)

Compound	IC50 [µM]
N=C(N)NN [PIMAGEDINE]	40.5
